{"source": "patent US12331051B2", "about": "(priority 2021, dated 2025)", "key": {"[1]": {"target": "T1, 5-HT2A receptor (Homo sapiens, UniProt P28223)", "T1 sequence (P28223 whole entry)": "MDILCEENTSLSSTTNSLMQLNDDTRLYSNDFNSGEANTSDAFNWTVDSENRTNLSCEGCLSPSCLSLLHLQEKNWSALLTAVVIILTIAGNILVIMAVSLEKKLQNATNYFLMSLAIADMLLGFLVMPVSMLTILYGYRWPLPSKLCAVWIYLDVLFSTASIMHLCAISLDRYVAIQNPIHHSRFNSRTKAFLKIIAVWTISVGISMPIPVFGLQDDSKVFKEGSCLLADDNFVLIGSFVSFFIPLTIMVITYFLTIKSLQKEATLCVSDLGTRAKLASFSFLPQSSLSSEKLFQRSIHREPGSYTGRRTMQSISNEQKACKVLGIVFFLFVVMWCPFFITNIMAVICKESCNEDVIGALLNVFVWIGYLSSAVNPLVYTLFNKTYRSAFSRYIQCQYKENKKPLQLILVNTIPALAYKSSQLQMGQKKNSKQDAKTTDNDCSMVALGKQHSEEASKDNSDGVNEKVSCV"}, "[2]": {"target": "T1, 5-HT2A receptor", "assay": "5-HT2A receptor internalization, NanoBit HiBit-fused 5-HT2A in HEK293T cells", "type": "cell-based", "set-up": "expressed in transfected cells; host or cells: HEK293T", "experimental": "To assess the ability of the “E559 polymorph” to induce β-arrestin-mediated 5-HT2A receptor internalization in vitro, the loss of surface expression of 5-HT2A receptor was measured using a NanoBit N-terminal HiBit-fused 5-HT2A construct cloned in HEK293T cells (1:15 ratio 5-HT2A: β-arrestin2). In brief, cells were treated with serial dilution of test compounds for 1 hour or a specified time point."}, "[3]": {"target": "T2, ADRa1A (α1A adrenergic receptor) (Homo sapiens, UniProt P35348)", "T2 sequence (P35348 1-466)": "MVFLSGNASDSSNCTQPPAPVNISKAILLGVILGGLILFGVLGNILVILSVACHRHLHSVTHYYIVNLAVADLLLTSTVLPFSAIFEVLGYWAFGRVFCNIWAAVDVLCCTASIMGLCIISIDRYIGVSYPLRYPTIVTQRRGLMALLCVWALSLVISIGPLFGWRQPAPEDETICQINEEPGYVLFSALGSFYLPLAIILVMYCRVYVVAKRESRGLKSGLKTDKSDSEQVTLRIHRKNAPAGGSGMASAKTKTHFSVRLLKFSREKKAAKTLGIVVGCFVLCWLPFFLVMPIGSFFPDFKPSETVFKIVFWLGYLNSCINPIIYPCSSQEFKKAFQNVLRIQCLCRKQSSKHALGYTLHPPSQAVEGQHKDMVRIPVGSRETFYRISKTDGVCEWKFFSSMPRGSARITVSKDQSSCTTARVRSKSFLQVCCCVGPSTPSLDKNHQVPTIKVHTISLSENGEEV", "assay": "BRET-based G protein dissociation assay", "type": "cell-based"}, "[4]": {"target": "CHRM1 (M1 muscarinic receptor) (Homo sapiens, UniProt P11229)", "sequence (P11229 whole entry)": "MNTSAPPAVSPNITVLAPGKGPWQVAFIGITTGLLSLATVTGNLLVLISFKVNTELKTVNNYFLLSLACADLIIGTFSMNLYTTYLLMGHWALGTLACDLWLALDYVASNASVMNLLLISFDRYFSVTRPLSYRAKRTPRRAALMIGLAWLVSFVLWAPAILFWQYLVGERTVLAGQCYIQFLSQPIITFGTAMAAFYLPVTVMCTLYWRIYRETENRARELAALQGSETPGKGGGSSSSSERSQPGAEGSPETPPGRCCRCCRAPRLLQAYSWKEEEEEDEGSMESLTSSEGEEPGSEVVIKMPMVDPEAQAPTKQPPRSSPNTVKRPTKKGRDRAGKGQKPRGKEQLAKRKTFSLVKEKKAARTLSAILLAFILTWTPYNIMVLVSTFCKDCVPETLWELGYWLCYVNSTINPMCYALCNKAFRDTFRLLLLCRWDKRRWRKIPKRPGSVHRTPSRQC", "assay": "BRET-based G protein dissociation assay", "type": "cell-based"}, "[5]": {"target": "H2 histaminergic receptor (Homo sapiens, UniProt P25021)", "sequence (P25021 whole entry)": "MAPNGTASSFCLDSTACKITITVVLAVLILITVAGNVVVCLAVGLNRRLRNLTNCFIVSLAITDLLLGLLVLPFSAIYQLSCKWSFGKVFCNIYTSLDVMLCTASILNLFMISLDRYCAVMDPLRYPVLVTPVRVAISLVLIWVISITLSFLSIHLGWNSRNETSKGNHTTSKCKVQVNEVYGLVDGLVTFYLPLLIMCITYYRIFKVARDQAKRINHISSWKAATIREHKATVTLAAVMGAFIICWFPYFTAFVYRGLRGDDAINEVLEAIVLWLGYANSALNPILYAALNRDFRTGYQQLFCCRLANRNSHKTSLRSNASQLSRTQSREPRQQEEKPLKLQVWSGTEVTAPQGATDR", "assay": "BRET-based G protein dissociation assay", "type": "cell-based"}, "[6]": {"test_system": "male C57BL/6J mice", "assay": "Head-twitch response (HTR) mouse model", "type": "in vivo", "experimental": "The HTR mouse model is widely used as a proxy behavioral assay for hallucinogenic activity in humans [Halbertstad et al., Neuropharmacology, 2020, V167: 107933; Halberstadt et. al., Psychopharmacology (Berl). 2013, 227(4):727-39].\nThe magnet implants mounting and magnetometer assessments were conducted as described previously (Halberstadt et al., Psychopharmacology (Berl). 2013 227(4): 727-739). Data are represented as group means±standard deviation for the entire 60 minutes test session (FIG. 10A) and individual data points per 2 minutes blocks (FIG. 10B). Asterisks indicate statistical significances compared to the control (0 mg/kg)."}, "[7]": {"target": "H4 histaminergic receptor (Homo sapiens, UniProt Q9H3N8)", "sequence (Q9H3N8 whole entry)": "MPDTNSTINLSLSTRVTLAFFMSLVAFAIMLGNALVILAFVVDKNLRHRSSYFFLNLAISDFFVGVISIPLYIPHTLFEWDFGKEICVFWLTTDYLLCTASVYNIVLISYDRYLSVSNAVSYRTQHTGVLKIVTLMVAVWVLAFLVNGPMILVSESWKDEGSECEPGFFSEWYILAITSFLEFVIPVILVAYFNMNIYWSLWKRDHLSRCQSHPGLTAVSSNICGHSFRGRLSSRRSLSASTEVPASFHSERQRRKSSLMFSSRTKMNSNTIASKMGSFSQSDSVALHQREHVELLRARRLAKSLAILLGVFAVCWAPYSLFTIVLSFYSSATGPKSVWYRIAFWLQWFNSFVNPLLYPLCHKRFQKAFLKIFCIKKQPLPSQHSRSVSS", "assay": "BRET-based G protein dissociation assay", "type": "cell-based"}, "[8]": {"target": "D5 dopamine receptor (Homo sapiens, UniProt P21918)", "sequence (P21918 whole entry)": "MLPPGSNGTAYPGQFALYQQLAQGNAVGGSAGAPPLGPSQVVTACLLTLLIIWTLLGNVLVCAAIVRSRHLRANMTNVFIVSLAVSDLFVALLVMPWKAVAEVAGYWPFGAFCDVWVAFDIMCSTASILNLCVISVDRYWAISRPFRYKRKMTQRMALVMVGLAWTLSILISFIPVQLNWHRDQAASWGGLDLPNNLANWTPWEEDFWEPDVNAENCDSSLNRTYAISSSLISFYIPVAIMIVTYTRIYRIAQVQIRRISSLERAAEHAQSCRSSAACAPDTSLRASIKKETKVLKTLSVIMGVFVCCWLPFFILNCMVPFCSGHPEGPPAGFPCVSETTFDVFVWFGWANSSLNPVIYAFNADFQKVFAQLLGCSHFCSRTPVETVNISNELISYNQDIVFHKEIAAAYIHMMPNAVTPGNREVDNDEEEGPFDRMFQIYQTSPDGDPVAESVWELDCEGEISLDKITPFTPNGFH", "assay": "BRET-based G protein dissociation assay", "type": "cell-based"}, "[9]": {"target": "CHRM5 (M5 muscarinic receptor) (Homo sapiens, UniProt P08912)", "sequence (P08912 whole entry)": "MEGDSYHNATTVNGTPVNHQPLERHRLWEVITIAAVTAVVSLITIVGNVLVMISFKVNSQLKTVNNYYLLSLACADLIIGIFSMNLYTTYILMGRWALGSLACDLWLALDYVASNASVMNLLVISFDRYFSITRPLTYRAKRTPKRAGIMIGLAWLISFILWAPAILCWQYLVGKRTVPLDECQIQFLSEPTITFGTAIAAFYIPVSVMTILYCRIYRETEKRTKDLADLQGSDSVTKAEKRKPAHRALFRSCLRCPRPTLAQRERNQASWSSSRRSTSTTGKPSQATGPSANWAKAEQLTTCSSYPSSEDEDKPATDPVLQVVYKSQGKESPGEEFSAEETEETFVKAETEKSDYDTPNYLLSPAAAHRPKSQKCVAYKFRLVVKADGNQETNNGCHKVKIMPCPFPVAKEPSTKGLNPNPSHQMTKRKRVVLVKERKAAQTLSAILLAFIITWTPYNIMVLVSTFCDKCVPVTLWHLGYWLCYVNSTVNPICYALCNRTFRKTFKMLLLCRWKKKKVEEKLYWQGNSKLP", "assay": "BRET-based G protein dissociation assay", "type": "cell-based"}, "[10]": {"target": "T3, 5-HT7 receptor (Homo sapiens, UniProt P34969)", "T3 construct": "expressed in transfected cells; host or cells: HEK293T", "T3 sequence (P34969 1-445 isoform P34969-2)": "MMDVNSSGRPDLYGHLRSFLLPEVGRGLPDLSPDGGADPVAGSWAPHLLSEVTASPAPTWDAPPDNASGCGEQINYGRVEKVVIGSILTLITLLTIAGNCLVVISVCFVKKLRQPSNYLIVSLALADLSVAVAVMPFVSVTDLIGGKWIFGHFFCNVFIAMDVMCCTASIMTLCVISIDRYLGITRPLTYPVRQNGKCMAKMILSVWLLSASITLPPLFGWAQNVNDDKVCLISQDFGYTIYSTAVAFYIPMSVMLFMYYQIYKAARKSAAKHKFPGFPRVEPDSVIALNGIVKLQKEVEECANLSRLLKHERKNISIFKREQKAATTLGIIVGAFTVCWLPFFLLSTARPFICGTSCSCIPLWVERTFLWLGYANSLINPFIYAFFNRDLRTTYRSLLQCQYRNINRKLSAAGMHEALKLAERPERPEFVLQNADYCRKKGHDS", "assay": "G protein dissociation and cAMP accumulation second messenger assays", "type": "cell-based"}, "[11]": {"target": "T4, CHRM4 (M4 muscarinic receptor) (Homo sapiens, UniProt P08173)", "T4 sequence (P08173 1-479)": "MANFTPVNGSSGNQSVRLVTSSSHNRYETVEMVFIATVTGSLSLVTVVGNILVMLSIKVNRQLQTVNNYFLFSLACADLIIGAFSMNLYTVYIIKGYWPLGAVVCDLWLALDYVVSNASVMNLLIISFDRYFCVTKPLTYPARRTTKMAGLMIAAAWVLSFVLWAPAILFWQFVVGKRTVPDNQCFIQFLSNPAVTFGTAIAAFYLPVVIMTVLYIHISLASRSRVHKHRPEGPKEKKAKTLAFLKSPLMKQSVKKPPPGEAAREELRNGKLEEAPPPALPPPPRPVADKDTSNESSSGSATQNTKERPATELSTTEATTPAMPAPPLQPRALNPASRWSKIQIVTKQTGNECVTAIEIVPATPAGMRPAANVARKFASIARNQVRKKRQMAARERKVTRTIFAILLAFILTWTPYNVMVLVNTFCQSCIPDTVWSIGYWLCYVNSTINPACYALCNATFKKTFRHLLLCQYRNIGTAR", "assay": "BRET-based G protein dissociation assay", "type": "cell-based"}, "[12]": {"target": "T5, 5-HT2B receptor (Homo sapiens, UniProt P41595)", "T5 construct": "expressed in transfected cells; host or cells: HEK293T; Flp-In 293 T-Rex (calcium flux)", "T5 sequence (P41595 whole entry)": "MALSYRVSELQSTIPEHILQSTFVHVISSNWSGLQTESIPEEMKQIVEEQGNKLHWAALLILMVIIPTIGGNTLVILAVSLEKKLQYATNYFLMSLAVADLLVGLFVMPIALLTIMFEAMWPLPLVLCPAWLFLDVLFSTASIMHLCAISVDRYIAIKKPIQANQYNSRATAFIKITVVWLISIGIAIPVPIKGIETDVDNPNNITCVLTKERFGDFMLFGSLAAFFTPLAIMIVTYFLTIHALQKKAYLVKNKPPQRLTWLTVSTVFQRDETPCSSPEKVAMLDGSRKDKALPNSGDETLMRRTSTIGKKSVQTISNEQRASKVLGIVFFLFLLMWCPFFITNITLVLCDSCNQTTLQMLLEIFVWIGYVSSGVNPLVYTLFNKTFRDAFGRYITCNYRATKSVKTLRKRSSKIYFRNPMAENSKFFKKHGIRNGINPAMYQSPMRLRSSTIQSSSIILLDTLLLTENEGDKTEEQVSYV", "assay": "5-HT2B Gq dissociation, β-arrestin2 recruitment and Gq-mediated calcium flux in HEK293T cells", "type": "cell-based", "experimental": "The activity of the “E559 polymorph” at the 5-HT2B receptor was further assessed by 5-HT2B-mediated Gq dissociation (FIG. 14A), 5-HT2B-mediated 0-arrestin2 recruitment (FIG. 14B) and 5-HT2B Gq-mediated calcium flux assessments (FIG. 14C) using bioluminescence resonance energy transfer (BRET) assay in HEK293T cells FIG. 14A to C, 5-HT refers to serotonin). […] In 5-HT2B antagonist assays, the “E559 polymorph” antagonism was measured by its ability to block 5-HT2B receptor activation by 5-HT."}, "[13]": {"target": "T1, 5-HT2A receptor", "remark": "listed apart in the source"}, "[14]": {"conditions": "percentage of the reference ligand-induced maximal response, read-out: Emax"}}, "note": "Entries after “also recorded” stand apart in the source; their conditions may differ. Read-outs that look alike come from different tables or passages of the source.", "data": [{"smiles": "CCN(CC)C(=O)[C@@H]1C=C2c3cccc4[nH]c(Br)c(c34)C[C@H]2N(C)C1", "note": "[E559, (5R, 8R)-2-Bromo-9,10-didehydro-N,N-diethyl-6-methylergoline-8-carboxamide hemi-D-tartrate]", "values": [{"measurement": "functional (agonist) activity at 5-HT2A", "setting": "[1]; FIG. 15, FIG. 16A/B", "result": "potent partial agonist of 5-HT2A"}, {"measurement": "antagonism of 5-HT activation of 5-HT2A", "setting": "[1]; Gq dissociation and β-arrestin2 recruitment, FIG. 17A/B", "result": "antagonizes the 5-HT activation"}, {"measurement": "internalization of the 5-HT2A receptor (loss of surface expression)", "setting": "[2]; single 1 hour treatment", "result": "only exhibits weak internalization of the 5-HT2A receptor"}, {"measurement": "EC50", "setting": "[3]", "result": 25, "unit": "nM"}, {"measurement": "Kb", "setting": "[3]", "result": 56.9, "unit": "nM"}, {"measurement": "EC50", "setting": "[4]", "result": 2.96, "unit": "nM"}, {"measurement": "EC50", "setting": "[5]", "result": 296, "unit": "nM"}, {"measurement": "Emax", "setting": "[5]", "result": 28.8, "unit": "%"}, {"measurement": "Kb", "setting": "[5]", "result": 5190, "unit": "nM"}, {"measurement": "head-twitch response (HTR)", "setting": "[6]; IP, E559 polymorph 0.1-10 mg/kg, LSD 0.1 mg/kg, 60 minutes", "result": "negative in HTR at all doses tested; also recorded: did not induce HTR above baseline at any tested dose"}, {"measurement": "Emax", "setting": "[7]", "result": 17.4, "unit": "%"}, {"measurement": "EC50", "setting": "[8]", "result": 3.75, "unit": "nM"}, {"measurement": "Emax", "setting": "[8]", "result": 15.6, "unit": "%"}, {"measurement": "Kb", "setting": "[8]", "result": 25.1, "unit": "nM"}, {"measurement": "EC50", "setting": "[9]", "result": 5820, "unit": "nM"}, {"measurement": "functional activity at 5-HT7", "setting": "[10]; FIG. 15, FIG. 16A/B, listed as E559 polymorph", "result": "act as potent antagonist and inverse agonists; also recorded: exhibits significantly greater inverse agonism than LSD"}, {"measurement": "EC50", "setting": "[11]", "result": 0.04, "unit": "nM"}, {"measurement": "Emax", "setting": "[11]", "result": 15.6, "unit": "%"}, {"measurement": "antagonism of 5-HT-mediated activation of 5-HT2B", "setting": "[12]; Gq dissociation, β-arrestin2 recruitment, calcium flux", "result": "antagonism was observed in blocking 5-HT-mediated activation of the 5-HT2B receptor in all three assays"}, {"measurement": "agonism at 5-HT2B", "setting": "[12]; Gq dissociation, β-arrestin2 recruitment, calcium flux, listed as E559 polymorph", "result": "does not show the agonism seen with LSD; also recorded: inactive as an agonist at the 5-HT2B receptor"}, {"measurement": "β-Arrestin2 recruitment at the 5-HT2A receptor", "setting": "[13]; percentage of the 5-HT-induced maximal response", "result": "weak recruiter of β-Arrestin2"}]}, {"smiles": "CCN(CC)C(=O)[C@@H]1C=C2c3cccc4[nH]cc(c34)C[C@H]2N(C)C1", "note": "[LSD, lysergic acid diethylamide, reference compound]", "values": [{"measurement": "functional (agonist) activity at 5-HT2A", "setting": "[1]", "result": "potent almost full 5-HT2A agonist"}, {"measurement": "internalization of the 5-HT2A receptor (loss of surface expression)", "setting": "[2]", "result": "potent internalization"}, {"measurement": "EC50", "setting": "[3]; agonist mode, read-out: EC50", "result": 38.5, "unit": "nM"}, {"measurement": "Emax", "setting": "[3]; percentage of the reference ligand-induced maximal response", "result": 24.8, "unit": "%"}, {"measurement": "EC50", "setting": "[4]; agonist mode, read-out: EC50", "result": 211, "unit": "nM"}, {"measurement": "EC50", "setting": "[5]; agonist mode, read-out: EC50", "result": "> 10000", "unit": "nM"}, {"measurement": "Emax", "setting": "[5]; [14]", "result": 21.2, "unit": "%"}, {"measurement": "head-twitch response (HTR)", "setting": "[6]; mouse, in vivo", "result": "elicited a strong HTR"}, {"measurement": "EC50", "setting": "[7]; agonist mode", "result": 0.09, "unit": "nM"}, {"measurement": "Emax", "setting": "[7]; [14]", "result": 15, "unit": "%"}, {"measurement": "EC50", "setting": "[8]; agonist mode, read-out: EC50", "result": 166, "unit": "nM"}, {"measurement": "Emax", "setting": "[8]; [14]", "result": 70.7, "unit": "%"}, {"measurement": "EC50", "setting": "[9]; agonist mode, read-out: EC50", "result": "> 10000", "unit": "nM"}, {"measurement": "functional activity at 5-HT7", "setting": "[10]", "result": "act as potent antagonist and inverse agonists"}, {"measurement": "EC50", "setting": "[11]; agonist mode, read-out: EC50", "result": 454, "unit": "nM"}, {"measurement": "agonism at 5-HT2B", "setting": "[12]", "result": "shows potent agonism of the 5-HT2B receptor; also recorded: an agonist of 5-HT2B"}, {"measurement": "β-Arrestin2 recruitment at the 5-HT2A receptor", "setting": "[13]", "result": "strong recruiters of β-Arrestin2"}]}]}
